Results reported in patent publication US8431708B2, “Fluorescent carbazole compounds for cancer diagnosis” (Academia Sinica, priority 2009, dated 2013).

Test system: MRC-5 human lung normal fibroblast cells
Experiment: Fluorescence intensity as a function of incubation time in normal cells
Type: cell-based
Details: MRC-5 cells
Protocol: The fluorescence intensity of 3,6-bis(1-methyl-4-vinylpyridinium)carbazole diiode (BMVC) described in Kang et al., J. Chin. Chem. Soc., 2005, 52, 1069-1072 and Compound 3 were measured in CL1-0 lung cancer cells and MRC-5 human lung normal fibroblast cells as a function of incubation time.

C[n+]1ccc(C=Cc2ccc3[nH]c4ccc(C=Cc5cc[n+](C)cc5)cc4c3c2)cc1.[I-].[I-] [BMVC, 3,6-bis(1-methyl-4-vinylpyridinium)carbazole diiode]
fluorescence in normal cells: weak fluorescence in normal cells
